According to ChEMBL document CHEMBL1201862, “PubChem BioAssay data set” (2004):
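Protocol summary: plate cells (96-well), add compound at 5 concentrations, incubate 48 h, interpolate endpoints linearly. Abbreviation: GI50, concentration required for 50% inhibition of growth.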 The source made the active and inactive calls. Rule as the data show it: active = GI50 up to about 1.1 µM and inactive = higher.

Legend:
Assay in all cases: inhibition of tumour cell growth, NCI panel, 48 h
[1] = system: SR
[2] = system: NCI-H460
[3] = system: TK-10
[4] = system: U-251
[5] = system: CCRF-CEM
[6] = system: NCI-H522
[7] = system: HCC 2998
[8] = system: LXFL 529
[9] = system: UO-31
[10] = system: UACC-257
[11] = system: HT-29
[12] = system: MOLT-4
[13] = system: SNB-78
[14] = system: K562
[15] = system: ACHN
[16] = system: RPMI-8226
[17] = system: 786-0
[18] = system: SF-539
[19] = system: OVCAR-8
[20] = system: Malme-3M
[21] = system: UACC-62
[22] = system: DMS-273
[23] = system: HL-60
[24] = system: M14
[25] = system: COLO 205
[26] = system: SK-OV-3
[27] = system: A549
[28] = system: DLD-1
[29] = system: HOP-62
[30] = system: SN12C
[31] = system: IGROV-1
[32] = system: NCI-H23
[33] = system: EKVX
[34] = system: SK-MEL-28
[35] = system: M19-MEL
[36] = system: KM12
[37] = system: HCT-15
[38] = system: SW-620
[39] = system: SNB-19
[40] = system: LOX IMVI
[41] = system: NCI-H226
[42] = system: DU-145
[43] = system: MCF7
[44] = system: SK-MEL-5
[45] = system: SF-268
[46] = system: NCI/ADR-RES
[47] = system: A498
[48] = system: OVCAR-3
[49] = system: T47D
[50] = system: Hs-578T
[51] = system: MDA-N
[52] = system: OVCAR-4
[53] = system: HCT-116
[54] = system: SK-MEL-2
[55] = system: SNB-75
[56] = system: BT-549
[57] = system: RXF 393
[58] = system: OVCAR-5
[59] = system: MDA-MB-435
[60] = system: PC-3
[61] = system: SF-295
[62] = system: MDA-MB-231
[63] = system: CAKI-1
[64] = system: HOP-92

Measured: GI50

CN(C)c1cccc(-c2cc(O)c3ccccc3n2)c1
inactive: [1] 45.5 µM | [2] 13.6 µM | [3] > 100 µM | [4] 55.8 µM | [5] 41.7 µM | [6] 24.2 µM | [7] 40.4 µM | [8] 57.7 µM | [9] 47.6 µM | [10] 31.9 µM | [11] 25.2 µM | [12] 61.5 µM | [13] 82 µM | [14] > 10 µM | [15] > 100 µM | [16] 34.8 µM | [17] 49.7 µM | [18] 30.4 µM | [19] 75.9 µM | [20] 31.7 µM | [21] 42 µM | [22] 45.9 µM | [23] 28.2 µM | [24] 43.3 µM | [25] 48.2 µM | [26] 68.1 µM | [27] 57.3 µM | [28] 26.8 µM | [29] 53.7 µM | [30] 47.8 µM | [31] 80.9 µM | [32] 54.8 µM | [33] > 100 µM | [34] 86.1 µM | [35] 76.7 µM | [36] 34.4 µM | [38] 37 µM | [39] 39 µM | [40] 71.4 µM
44.4 µM: [37]

CC(C)(C)c1cc(C(=O)/C=C/c2ccc(O)c(O)c2O)cc(C(C)(C)C)c1O
inactive: [1] 1.45 µM | [2] 1.78 µM | [41] 14.1 µM | [3] 3.57 µM | [42] 10.5 µM | [4] 2.79 µM | [43] 4.6 µM | [5] 1.73 µM | [44] 5.6 µM | [45] 5.3 µM | [46] 1.69 µM | [7] 2.84 µM | [9] 2.67 µM | [47] 14 µM | [48] 3.52 µM | [10] 3.05 µM | [49] 2 µM | [11] 11.7 µM | [50] 3.99 µM | [12] 2.49 µM | [14] 2.81 µM | [15] 5.69 µM | [16] 1.59 µM | [51] 4.38 µM | [17] 4.43 µM | [18] 2.92 µM | [19] 4.07 µM | [52] 2.77 µM | [53] 2.73 µM | [20] 11.5 µM | [54] 4.41 µM | [21] 4.54 µM | [55] 1.95 µM | [56] 7.4 µM | [57] 2.84 µM | [23] 1.77 µM | [24] 5.46 µM | [25] 11.8 µM | [58] 17.5 µM | [26] 3.87 µM | [59] 6.89 µM | [27] 5.06 µM | [29] 7.08 µM | [30] 2.8 µM | [31] 6 µM | [60] 3.67 µM | [61] 5.41 µM | [32] 4.03 µM | [33] 4.83 µM | [34] 5.01 µM | [36] 2.58 µM | [62] 12 µM | [63] 3.21 µM | [64] 5.68 µM | [38] 2.58 µM | [39] 2.56 µM | [40] 9.71 µM
active: [6] 1.08 µM
0.991 µM: [37]
